Laboratory results: patent publication US8623924B2, “Compositions and methods for modulating metabolic pathways” (Nusirt Sciences, Inc., priority 2011, dated 2014)
Marks after values point to notes of the source that are not given here.

Key:
[1] = Oxygen consumption/substrate utilization (metabolic chambers) in diet-induced obese mice; format: in vivo; settings: low resveratrol 12.5 mg/kg diet, low HMB 2 g CaHMB/kg diet, high HMB 10 g CaHMB/kg diet, leucine 2.42% of diet
Description: (§1) Six week old male c57/BL6 mice were fed a high-fat diet with fat increased to 45% of energy (Research Diets D12451) for 6 weeks to induce obesity.
Oxygen Consumption/Substrate Utilization: at the end of the obesity induction period (day 0 of treatment group) and at 2 weeks and 6 weeks of treatment, oxygen consumption and substrate utilization was measured via metabolic chambers using the Comprehensive Lab Animal Monitoring Systems (CLAMS, Columbus Instruments, Columbus, Ohio) in subgroups of each treatment group. Each animal was placed in individual cages without bedding that allow automated, non-invasive data collection. Each cage is an indirect open circuit calorimeter that provides measurement of oxygen consumption, carbon dioxide production, and concurrent measurement of food intake. All mice were acclimatized to the chambers for 24 hours prior to the experiment and maintained under the regular 12:12 light:dark cycle with free access to water and food. All experiments were started in the morning and data were collected for 24 hours. Each chamber was passed with 0.6 l of air/min and was sampled for 2 min at 32-minute intervals. Exhaust O2 and CO2 content from each chamber was compared with ambient O2 and CO2 content. Food consumption was measured by electronic scales.

[2] = test system: myotube mitochondrial biogenesis; experiment: Myotube mitochondrial biogenesis (NAO binding), Example 1; format: cell-based; settings: assessed fluorometrically via NAO binding
Description: We next investigated the role of intact leucine (0-0.5 mM) vs. its metabolites, α-ketoisocaproic acid (KIC) (0-0.5 mM) and HMB (0-50 μM). […] Both leucine and HMB increased myotube mitochondrial biogenesis (assessed fluorometrically via NAO binding) by ˜50%, (p<0.005, FIG. 3).

[3] = Indices of insulin sensitivity (plasma glucose, insulin, HOMAIR) in diet-induced obese mice; format: in vivo; settings: 6 weeks on diet, low resveratrol 12.5 mg/kg diet, low HMB 2 g CaHMB/kg diet, high HMB 10 g CaHMB/kg diet, leucine 2.42% of diet
Source text: Insulin sensitivity can be measured using a variety of techniques, including HOMAIR. HOMAIR, which is the homeostasis model assessment of insulin resistance can be used as a screening index of changes in insulin sensitivity. HOMAIR can be calculated via standard formula from fasting plasma insulin and glucose as follows: HOMAIR=[Insulin (uU/mL)×glucose (mM)]/22.5.
as §1
At the of the treatment period (6 weeks) all animals were humanely euthanized, and blood and tissues collected for further experiments.

Adiponectin = Adiponectin in diet-induced obese mice; format: in vivo; settings: 6 weeks on diet, low resveratrol 12.5 mg/kg diet, low HMB 2 g CaHMB/kg diet, high HMB 10 g CaHMB/kg diet, leucine 2.42% of diet
Sirt1 = target: T1, Sirt1 (Mus musculus, UniProt Q923E4); experiment: Adipose tissue Sirt1 activity in diet-induced obese mice; format: in vivo; settings: low dose of resveratrol, HMB, or their combinations with HMB or leucine (FIG. 10)
T1 construct: from tissue; host or cells: adipose tissue of c57/BL6 mice
T1 sequence (Q923E4 1-737): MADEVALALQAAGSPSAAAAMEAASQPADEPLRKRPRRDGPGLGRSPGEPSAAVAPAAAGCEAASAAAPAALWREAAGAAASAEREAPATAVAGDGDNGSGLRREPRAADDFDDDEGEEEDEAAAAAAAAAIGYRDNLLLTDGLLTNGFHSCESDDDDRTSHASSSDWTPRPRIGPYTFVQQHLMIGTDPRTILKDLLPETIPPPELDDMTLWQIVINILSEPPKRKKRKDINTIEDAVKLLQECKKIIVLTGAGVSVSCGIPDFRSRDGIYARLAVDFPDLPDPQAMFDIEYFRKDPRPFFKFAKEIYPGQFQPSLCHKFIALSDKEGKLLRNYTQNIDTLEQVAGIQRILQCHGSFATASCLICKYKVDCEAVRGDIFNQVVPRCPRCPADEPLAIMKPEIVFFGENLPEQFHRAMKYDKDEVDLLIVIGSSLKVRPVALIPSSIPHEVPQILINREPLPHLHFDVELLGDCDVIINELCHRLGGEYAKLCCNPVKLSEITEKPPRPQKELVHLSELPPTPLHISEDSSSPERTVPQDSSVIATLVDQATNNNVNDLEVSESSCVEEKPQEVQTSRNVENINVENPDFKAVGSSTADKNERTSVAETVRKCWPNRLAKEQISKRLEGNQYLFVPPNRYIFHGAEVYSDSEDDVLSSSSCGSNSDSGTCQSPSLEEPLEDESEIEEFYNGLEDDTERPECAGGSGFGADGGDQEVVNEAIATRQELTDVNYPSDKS

Adipocytes (3T3-L1) = experiment: Fatty acid oxidation (3H-palmitate) in 3T3-L1 adipocytes; format: cell-based; settings: high (25 mM) glucose, 4 hours; leucine 0.5 mM, HMB 5 uM, resveratrol 200 nM; vs. control
Description: High glucose medium reduced fatty acid oxidation by 46% (p<0.05).
Fatty acid oxidation was measured using ^3H-labeled palmitate oxidation, with the ^3H label trapped as water as a result of the fat oxidation. The ^3H was then measured via scintillation counter.

CC(C)(O)CC(=O)O [HMB]
Heat Production [1]: 0.526 ± 0.011^a | Respiratory Exchange Ratio (24 hr RER) [1]: 0.844 ± 0.012^a | increase in myotube mitochondrial biogenesis [2]: ~50% | HOMAIR [3]: 1.93 ± 0.32^a | Glucose (mM) ([3]; plasma): 4.28 ± 0.49^a mM | Insulin (μU/mL) ([3]; plasma): 8.3 ± 1.1^a μU/mL | Adiponectin (ng/mL) (Adiponectin): 11.1 ± 1.6^a ng/mL | adipose tissue Sirt1 activity (Sirt1): Neither resveratrol nor HMB exerted significant independent effects | increase in fatty acid oxidation, high glucose (Adipocytes (3T3-L1)): 29%
